Experimental data as given in patent US10196403B2, “Compounds and compositions and uses thereof” (Sunovion Pharmaceuticals Inc., priority 2016, dated 2019).

Tested on: mice
Test: Neuropharmacological Assay (SmartCube)
Assay type: in vivo
Conditions: for minimal effective dose: Mus musculus, read-out: POTENCY (minimal effective dose, MED); for AD: ADHD (SmartCube probability) / AG: analgesic (SmartCube probability) / AX: anxiolytic (SmartCube probability) / CE: cognitive enhancer (SmartCube probability) / DP: anti-depressant (SmartCube probability) / MS: mood stabilizer (SmartCube probability) / PS: anti-psychotic (SmartCube probability) / SD: sedative hypnotic (SmartCube probability) / UN: uncharacterized CNS activity (SmartCube probability): mice, i.p. 15 min before test, most efficacious dose(s) of 3 doses
How it was run: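 Behavior of treated mice captured by digital video and matched algorithmically against reference drug classes, yielding a class probability at the most efficacious of 3 i.p. doses (15 min pretreatment, NMP/PEG/propylene glycol vehicle). Potency given as MED, the mpk dose reaching ≥50% total activity across usually 0.3–30 mpk.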

[1] = MED = dose having 50% or more total activity in SmartCube

Row | SMILES | minimal effective dose [1] [mg/kg] | AD: ADHD (SmartCube probability) | AG: analgesic (SmartCube probability) | AX: anxiolytic (SmartCube probability) | CE: cognitive enhancer (SmartCube probability) | DP: anti-depressant (SmartCube probability) | MS: mood stabilizer (SmartCube probability) | PS: anti-psychotic (SmartCube probability) | SD: sedative hypnotic (SmartCube probability) | UN: uncharacterized CNS activity (SmartCube probability) | POTENCY (minimal effective dose, MED) [1]
1 | CNC[C@@H]1OCCc2ccc3c(c21)OCC3 [Example 105, (R)-N-methyl-1-(2,3,6,9-tetrahydro-7H-furo[3,2-h]isochromen-9-yl)methanamine] | < 3 | + (LOQ≤ + <5%) | + (LOQ≤ + <5%) | ++ (5%≤ ++ <25%) | + (LOQ≤ + <5%) | ++ (5%≤ ++ <25%) | + (LOQ≤ + <5%) | ++ (5%≤ ++ <25%) | +++ (25%≤ +++ <50%) | + (LOQ≤ + <5%) | –
2 | CNC[C@@H]1OCCc2c1ccc1c2OCO1 [Example 4, (R)-1-(8,9-dihydro-6H-[1,3]dioxolo[4,5-f]isochromen-6-yl)-N-methylmethanamine] | 3 to 10 | + (LOQ≤ + <5%) | ++ (5%≤ ++ <25%) | + (LOQ≤ + <5%) | + (LOQ≤ + <5%) | ++++ (50%≤ ++++) | + (LOQ≤ + <5%) | + (LOQ≤ + <5%) | + (LOQ≤ + <5%) | + (LOQ≤ + <5%) | –
3 | NC[C@@H]1OCCc2cccc(Cl)c21 [Example 71, (R)-(8-chloroisochroman-1-yl)methanamine] | < 3 | + (LOQ≤ + <5%) | ++ (5%≤ ++ <25%) | ++ (5%≤ ++ <25%) | ++ (5%≤ ++ <25%) | + (LOQ≤ + <5%) | + (LOQ≤ + <5%) | ++ (5%≤ ++ <25%) | + (LOQ≤ + <5%) | ++++ (50%≤ ++++) | –
4 | NC[C@@H]1OCCc2ccc3c(c21)OCO3 [Example 8, (R)-(6,9-dihydro-7H-[1,3]dioxolo[4,5-h]isochromen-9-yl)methanamine] | 3 to 10 | + (LOQ≤ + <5%) | ++ (5%≤ ++ <25%) | ++ (5%≤ ++ <25%) | ++ (5%≤ ++ <25%) | ++ (5%≤ ++ <25%) | + (LOQ≤ + <5%) | ++ (5%≤ ++ <25%) | + (LOQ≤ + <5%) | +++ (25%≤ +++ <50%) | –
5 | Cc1cccc2c1[C@@H](CN)OCC2 [Example 74, (S)-(8-methylisochroman-1-yl)methanamine] | 10 to 30 | + (LOQ≤ + <5%) | + (LOQ≤ + <5%) | ++ (5%≤ ++ <25%) | + (LOQ≤ + <5%) | + (LOQ≤ + <5%) | + (LOQ≤ + <5%) | + (LOQ≤ + <5%) | ++ (5%≤ ++ <25%) | +++ (25%≤ +++ <50%) | –
6 | CNC[C@@H]1OC[C@@H](O)c2ccc3c(c21)OCO3 (single isomer, unassigned) [Example 111] | 10 to 30 | + (LOQ≤ + <5%) | + (LOQ≤ + <5%) | ++ (5%≤ ++ <25%) | + (LOQ≤ + <5%) | ++++ (50%≤ ++++) | + (LOQ≤ + <5%) | ++ (5%≤ ++ <25%) | + (LOQ≤ + <5%) | + (LOQ≤ + <5%) | –
7 | CNC[C@H]1OCc2c(Cl)cccc21 [Example 92, (S)-1-(4-chloro-1,3-dihydroisobenzofuran-1-yl)-N-methylmethanamine] | 10 to 30 | + (LOQ≤ + <5%) | ++ (5%≤ ++ <25%) | ++ (5%≤ ++ <25%) | ++ (5%≤ ++ <25%) | ++ (5%≤ ++ <25%) | + (LOQ≤ + <5%) | + (LOQ≤ + <5%) | ++ (5%≤ ++ <25%) | +++ (25%≤ +++ <50%) | –
8 | CN(C)C[C@H]1OCCc2cccc(F)c21 [Example 84, (S)-1-(8-fluoroisochroman-1-yl)-N,N-dimethylmethanamine] | < 3 | + (LOQ≤ + <5%) | ++ (5%≤ ++ <25%) | ++ (5%≤ ++ <25%) | ++ (5%≤ ++ <25%) | ++ (5%≤ ++ <25%) | + (LOQ≤ + <5%) | ++ (5%≤ ++ <25%) | ++ (5%≤ ++ <25%) | ++++ (50%≤ ++++) | –
9 | CNC[C@@H]1OCCc2cccc(Cl)c21 [Example 37, (R)-1-(8-chloroisochroman-1-yl)-N-methylmethanamine] | < 3 | + (LOQ≤ + <5%) | ++ (5%≤ ++ <25%) | + (LOQ≤ + <5%) | ++ (5%≤ ++ <25%) | ++ (5%≤ ++ <25%) | + (LOQ≤ + <5%) | ++ (5%≤ ++ <25%) | + (LOQ≤ + <5%) | ++++ (50%≤ ++++) | –
10 | CC(N)C1OCCc2ccc3c(c21)OCO3 (centres unmarked) [Example 55] | – | + (LOQ≤ + <5%) | ++ (5%≤ ++ <25%) | ++ (5%≤ ++ <25%) | + (LOQ≤ + <5%) | ++ (5%≤ ++ <25%) | + (LOQ≤ + <5%) | + (LOQ≤ + <5%) | + (LOQ≤ + <5%) | ++++ (50%≤ ++++) | C (>10 to ≤30 mpk)
11 | NC[C@H]1OCCc2cccc(Cl)c21 [Example 70, (S)-(8-chloroisochroman-1-yl)methanamine] | 3 to 10 | + (LOQ≤ + <5%) | ++ (5%≤ ++ <25%) | ++ (5%≤ ++ <25%) | ++ (5%≤ ++ <25%) | ++ (5%≤ ++ <25%) | + (LOQ≤ + <5%) | +++ (25%≤ +++ <50%) | ++ (5%≤ ++ <25%) | +++ (25%≤ +++ <50%) | –
